PubChem BioAssay AID977614 (Broad Institute, 2014)
Active and inactive are the calls of the source.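 Rule for the calls: active = parasite count per well reduced by over 3 SD from the mean, with host cell number above 80% of untreated; inactive = the rest.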

Test system: L. donovani amastigotes in THP-1 macrophages, DAPI imaging, 72 h
Assay: antileishmanial activity in infected macrophages – imaging, THP-1 host macrophages, single concentration (AID 977614);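 note: signal is the parasite per host cell ratio from DAPI stained kinetoplasts and nuclei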

Row | Compound | AC50
1 | O=C(Nc1cccc(Cl)c1)N1C[C@H]2[C@@H](c3ccccc31)[C@@H](CO)N2Cc1cccnc1 | > 10 µM (inactive)
2 | O=C(C1CCCCC1)N1[C@H](CO)[C@@H]2c3ccccc3N(S(=O)(=O)c3ccccc3)C[C@@H]21 | > 10 µM (inactive)
3 | O=C(Nc1ccc(F)cc1)N1C[C@@H]2[C@H](c3ccccc31)[C@@H](CO)N2C(=O)c1ccncc1 | > 10 µM (inactive)
4 | C[C@@H]1CN([C@@H](C)CO)C(=O)CCCn2nncc2CO[C@H]1CN(C)C(=O)CCC(F)(F)F | > 10 µM (inactive)
5 | C[C@@H]1CN([C@H](C)CO)C(=O)CCCn2nncc2CO[C@H]1CN(C)S(=O)(=O)c1ccc2c(c1)OCCCO2 | > 10 µM (inactive)
6 | CCN(C[C@@H]1[C@@H](c2ccccc2)[C@H](CO)N1C(=O)COC)S(C)(=O)=O | > 10 µM (inactive)
7 | COCC(=O)N1C[C@@H]2[C@H](c3ccccc31)[C@H](CO)N2C(=O)c1ccccc1F | > 10 µM (inactive)
8 | Cc1noc(C)c1NC(=O)N(C)C[C@@H]1OCc2cnnn2CCCC(=O)N([C@@H](C)CO)C[C@H]1C | > 10 µM (inactive)
9 | CN1C[C@@H]2[C@H](c3ccccc31)[C@@H](CO)N2C(=O)C1CCOCC1 | > 10 µM (inactive)
10 | C/C=C/c1ccc([C@H]2[C@@H](CO)N(C(=O)CC)[C@H]2CN(C)Cc2cncnc2)cc1 | > 10 µM (inactive)
11 | C/C=C/c1ccc([C@@H]2[C@@H](CN(C)C(C)=O)N(C(=O)NC(C)C)[C@H]2CO)cc1 | > 10 µM (inactive)
12 | C[C@H](CO)N1C[C@H](C)[C@@H](CN(C)Cc2cccc(C(F)(F)F)c2)OCc2cnnn2CCCC1=O | > 10 µM (inactive)
13 | C[C@@H]1CN([C@H](C)CO)C(=O)CCCn2nncc2CO[C@H]1CN(C)C(=O)c1cc(-c2ccccc2)on1 | > 10 µM (inactive)
14 | CC(C)NC(=O)N1[C@@H](CO)[C@@H]2c3ccccc3N(C)C[C@@H]21 | > 10 µM (inactive)
15 | O=C(Cc1cccnc1)N1[C@H](CO)[C@H](c2ccccc2)[C@H]1CNCC1CCC1 | > 10 µM (inactive)
16 | C[C@@H]1CN([C@H](C)CO)C(=O)CCCn2nncc2CO[C@H]1CN(C)C(=O)Nc1ccc(-c2cccs2)cc1 | > 10 µM (inactive)
17 | C[C@H]1CN([C@@H](C)CO)C(=O)CCCn2nncc2CO[C@H]1CN(C)C(=O)Nc1ccnc(N2CCOCC2)c1 | > 10 µM (inactive)
18 | C/C=C/c1ccc([C@H]2[C@@H](CO)N[C@@H]2CNC(=O)C2CC2)cc1 | > 10 µM (inactive)
19 | CC(=O)N1[C@H](CN(CC(C)C)C(=O)c2ccccn2)[C@H](c2ccccc2)[C@@H]1CO | > 10 µM (inactive)
20 | CN(C[C@H]1N[C@@H](CO)[C@@H]1c1ccc(C2=CCCC2)cc1)C(=O)c1cccc(F)c1 | > 10 µM (inactive)
21 | C[C@@H]1CN([C@H](C)CO)C(=O)CCCn2cc(nn2)CO[C@@H]1CN(C)C(=O)Nc1cccc2ccccc12 | > 10 µM (inactive)
22 | CN(C[C@H]1[C@@H](c2ccc(C3=CCCC3)cc2)[C@@H](CO)N1CCC(F)(F)F)S(C)(=O)=O | > 10 µM (inactive)
23 | O=C(c1ccncc1)N1C[C@H]2[C@@H](c3ccccc31)[C@H](CO)N2Cc1ccccc1F | > 10 µM (inactive)
24 | CCN(C[C@H]1[C@H](c2ccccc2)[C@@H](CO)N1C(C)=O)C(=O)NC1CCCC1 | > 10 µM (inactive)
25 | C[C@H](CO)N1C[C@H](C)[C@H](CN(C)Cc2ccccc2)OCc2cn(nn2)CCCC1=O | > 10 µM (inactive)
26 | O=C(Nc1ccccc1F)N1C[C@@H]2[C@H](c3ccccc31)[C@@H](CO)N2C(=O)Cc1cccnc1 | > 10 µM (inactive)

Row | Compound | AC50
27 | O=C(c1ccc2c(c1)OCO2)N1C[C@@H]2[C@H](c3ccccc31)[C@H](CO)N2C(=O)CC1CC1 | > 10 µM (inactive)
28 | COCC(=O)N1C[C@@H]2[C@H](c3ccccc31)[C@H](CO)N2Cc1cc(F)ccc1F | > 10 µM (inactive)
29 | CCCNC(=O)N1C[C@H]2[C@@H](c3ccccc31)[C@@H](CO)N2Cc1cccc(OC)c1 | > 10 µM (inactive)
30 | COc1ccc(CN2[C@@H](CO)[C@@H]3c4ccccc4NC[C@@H]32)cc1 | > 10 µM (inactive)
31 | CC(=O)N1[C@H](CNC(=O)C2CC2)[C@H](c2ccc(-c3ccccc3)cc2)[C@@H]1CO | > 10 µM (inactive)
32 | C[C@@H]1CN([C@@H](C)CO)C(=O)CCCn2cc(nn2)CO[C@H]1CN(C)C(=O)Nc1ccc2c(c1)OCO2 | > 10 µM (inactive)
33 | O=C(c1ccccc1F)N1C[C@H]2[C@@H](c3ccccc31)[C@H](CO)N2Cc1ccc2c(c1)OCO2 | > 10 µM (inactive)
34 | COc1ccccc1C(=O)N1C[C@H]2[C@@H](c3ccccc31)[C@@H](CO)N2C(=O)Cc1ccccc1 | > 10 µM (inactive)
35 | C[C@@H]1CN([C@H](C)CO)C(=O)CCCn2cc(nn2)CO[C@H]1CN(C)C(=O)CCC(F)(F)F | > 10 µM (inactive)
36 | CCN(C[C@@H]1[C@@H](c2ccccc2)[C@@H](CO)N1C(C)=O)C(=O)NC1CCCC1 | > 10 µM (inactive)
37 | C/C=C/c1ccc([C@@H]2[C@@H](CO)N(C(C)=O)[C@H]2CNC(=O)c2ccccc2)cc1 | > 10 µM (inactive)
38 | CC(C)NC(=O)N1[C@@H](CO)[C@@H]2c3ccccc3NC[C@@H]21 | > 10 µM (inactive)
39 | Cc1noc(C)c1S(=O)(=O)N(C)C[C@@H]1OCc2cn(nn2)CCCC(=O)N([C@@H](C)CO)C[C@@H]1C | > 10 µM (inactive)
40 | C[C@H]1CN([C@@H](C)CO)C(=O)CCCn2nncc2CO[C@@H]1CN(C)Cc1ccc(C(=O)Nc2ccccc2N)cc1 | > 10 µM (inactive)
41 | O=C(Nc1cccc(F)c1)N1C[C@H]2[C@@H](c3ccccc31)[C@H](CO)N2C(=O)Cc1ccccn1 | > 10 µM (inactive)
42 | CC(=O)N1[C@H](CO)[C@H](c2ccccc2)[C@@H]1CNC(=O)CN1CCOCC1 | > 10 µM (inactive)
43 | C[C@@H]1CN([C@H](C)CO)C(=O)CCCn2cc(nn2)CO[C@@H]1CN(C)C(=O)Oc1ccc2ccccc2c1 | > 10 µM (inactive)
44 | COCCN(C[C@H]1[C@H](c2ccccc2)[C@@H](CO)N1C(C)=O)C(=O)c1cccnc1 | > 10 µM (inactive)
45 | O=C(Nc1ccccc1Cl)N1C[C@@H]2[C@H](c3ccccc31)[C@@H](CO)N2C(=O)c1cccnc1 | > 10 µM (inactive)
46 | O=C(Cc1ccccc1)N1C[C@@H]2[C@H](c3ccccc31)[C@H](CO)N2S(=O)(=O)c1ccccc1 | > 10 µM (inactive)
47 | C/C=C/c1ccc([C@H]2[C@@H](CO)N(C(C)=O)[C@H]2CNC(=O)c2ccccc2)cc1 | > 10 µM (inactive)
48 | C/C=C/c1ccc([C@@H]2[C@@H](CN(CC)C(=O)CN(C)C)N(C(C)=O)[C@H]2CO)cc1 | > 10 µM (inactive)
49 | CCN(C[C@H]1N[C@H](CO)[C@H]1c1ccccc1)C(=O)c1ccncc1 | > 10 µM (inactive)
50 | C[C@@H]1CN([C@H](C)CO)C(=O)CCCn2nncc2CO[C@H]1CN(C)C(=O)Oc1cccc2ccccc12 | > 10 µM (inactive)
51 | C/C=C/c1ccc([C@H]2[C@@H](CO)N[C@@H]2CN(C(=O)c2ccccc2F)C(C)C)cc1 | > 10 µM (inactive)
52 | C[C@@H]1CN([C@H](C)CO)C(=O)CCCn2nncc2CO[C@H]1CN(C)S(=O)(=O)c1cn(C)cn1 | > 10 µM (inactive)

Row | Compound | AC50
53 | O=C(C1CCOCC1)N1C[C@@H]2[C@H](c3ccccc31)[C@@H](CO)N2C(=O)Cc1ccccn1 | > 10 µM (inactive)
54 | C[C@@H]1CN([C@H](C)CO)C(=O)CCCn2nncc2CO[C@@H]1CN(C)Cc1ccccc1C(=O)O | > 10 µM (inactive)
55 | O=C(c1cccc(F)c1)N1C[C@H]2[C@@H](c3ccccc31)[C@@H](CO)N2Cc1cocn1 | > 10 µM (inactive)
56 | O=C(Nc1ccccc1Cl)N1C[C@@H]2[C@H](c3ccccc31)[C@H](CO)N2C(=O)c1cccnc1 | > 10 µM (inactive)
57 | CN(C[C@@H]1[C@H](c2ccccc2)[C@H](CO)N1Cc1ccccn1)S(C)(=O)=O | > 10 µM (inactive)
58 | CCC(=O)N1[C@H](CO)[C@H]2c3ccccc3N(C(=O)Nc3ccc(Cl)cc3)C[C@H]21 | > 10 µM (inactive)
59 | C/C=C/c1ccc([C@@H]2[C@@H](CO)N(C(C)=O)[C@@H]2CN(CC)C(=O)CN(C)C)cc1 | > 10 µM (inactive)
60 | C/C=C/c1ccc([C@H]2[C@H](CO)N(C(C)=O)[C@H]2CNC(=O)c2ccccc2)cc1 | > 10 µM (inactive)
61 | C[C@H]1CN([C@@H](C)CO)C(=O)CCCn2nncc2CO[C@H]1CN(C)C(=O)c1ccc(N2CCN(C)CC2)cc1 | > 10 µM (inactive)
62 | CCCNC(=O)N1C[C@H]2[C@@H](c3ccccc31)[C@H](CO)N2C(=O)CN1CCOCC1 | > 10 µM (inactive)
63 | CN1C[C@H]2[C@@H](c3ccccc31)[C@@H](CO)N2C(=O)C1CCOCC1 | > 10 µM (inactive)
64 | COc1ccc(C(=O)N2C[C@@H]3[C@H](c4ccccc42)[C@H](CO)N3C(=O)NC(C)C)cc1 | > 10 µM (inactive)
65 | O=C(C1CCOCC1)N1C[C@H]2[C@@H](c3ccccc31)[C@@H](CO)N2C(=O)Cc1ccccn1 | > 10 µM (inactive)
66 | OC[C@@H]1[C@H]2c3ccccc3NC[C@H]2N1CC1CCOCC1 | > 10 µM (inactive)
67 | C[C@@H]1CN([C@H](C)CO)C(=O)CCCn2cc(nn2)CO[C@@H]1CN(C)S(=O)(=O)c1ccc(-n2cccn2)cc1 | > 10 µM (inactive)
68 | C[C@@H]1CN([C@@H](C)CO)C(=O)CCCn2cc(nn2)CO[C@H]1CN(C)C(=O)Nc1cccc2ccccc12 | > 10 µM (inactive)
69 | COCC(=O)N1[C@@H]2CN(C(=O)Nc3ccccc3Cl)c3ccccc3[C@@H]2[C@@H]1CO | > 10 µM (inactive)
70 | O=C(c1ccccc1)N1C[C@H]2[C@@H](c3ccccc31)[C@@H](CO)N2Cc1ccccn1 | > 10 µM (inactive)
71 | O=C(NC[C@@H]1[C@@H](c2ccccc2)[C@@H](CO)N1Cc1cccnc1)c1ccccn1 | > 10 µM (inactive)
72 | CCCNC[C@H]1[C@@H](c2ccc(C3=CCCCC3)cc2)[C@@H](CO)N1C(=O)C1CCC1 | > 10 µM (inactive)
73 | CCCNC[C@H]1[C@@H](c2ccc(-c3cccc(C#N)c3)cc2)[C@@H](CO)N1C(C)=O | > 10 µM (inactive)
74 | O=C(NC[C@H]1N[C@H](CO)[C@@H]1c1ccc(-c2cncnc2)cc1)C1CCCCC1 | > 10 µM (inactive)
75 | C[C@@H]1CN([C@H](C)CO)C(=O)CCCn2cc(nn2)CO[C@@H]1CN(C)C(=O)c1ccc(N2CCN(C)CC2)cc1 | > 10 µM (inactive)
76 | O=C(c1ccccn1)N1C[C@H]2[C@@H](c3ccccc31)[C@@H](CO)N2C(=O)Nc1ccccc1Cl | > 10 µM (inactive)
